{"source": "ChEMBL document CHEMBL1149515", "about": "“Small molecule inhibitors of IgE synthesis” (Bioorg Med Chem Lett, 2006)", "key": {"PBL": {"system": "PBL", "assay": "Inhibition of IL4-induced IgE synthesis in human peripheral blood lymphocytes", "type": "functional, cell-based"}, "[1]": {"assay": "Stability in human liver microsome at 1uM", "type": "ADME", "details": "liver microsomes"}, "CYP1A1": {"system": "CYP1A1", "assay": "Half life assessed as CYP1A1 mediated metabolism at 1 uM", "type": "ADME"}, "CYP1A2": {"system": "CYP1A2", "assay": "Half life assessed as CYP1A2 mediated metabolism at 1 uM", "type": "ADME"}, "[2]": {"assay": "Lipophilicity, LogD of the compound", "type": "physicochemical", "details": "octanol/water"}, "Salmonella typhi": {"system": "Salmonella typhi", "assay": "Mutagenic activity against […] by Ames assay", "type": "functional, organism-based", "details": "Salmonella enterica subsp. enterica […]"}}, "note": "Calls of active or inactive are those of the source. No cut-off for these calls is given here.", "data": [{"smiles": "CN1CCC(NC(=O)c2cn3ccnc3c(N3CCN(c4ccccn4)CC3)n2)CC1", "values": [{"measurement": "IC50", "setting": "PBL", "result": 37, "unit": "nM"}, {"measurement": "half-life at 1 µM", "setting": "[1]", "result": "> 120", "unit": "min"}, {"measurement": "half-life at 1 µM", "setting": "CYP1A1", "result": 45, "unit": "min"}, {"measurement": "half-life at 1 µM", "setting": "CYP1A2", "result": 95, "unit": "min"}]}, {"smiles": "c1cn2ccnc2c(N2CCN(C3CCCC3)CC2)n1", "values": [{"measurement": "IC50", "setting": "PBL", "result": "> 10000", "unit": "nM"}, {"measurement": "half-life at 1 µM", "setting": "[1]", "result": "> 120", "unit": "min"}, {"measurement": "half-life at 1 µM", "setting": "CYP1A2", "result": "> 120", "unit": "min"}]}, {"smiles": "CCN1CCC(NC(=O)c2nc(N3CCN(c4ncccn4)CC3)c3nccn3c2C)CC1", "values": [{"measurement": "IC50", "setting": "PBL", "result": 49, "unit": "nM"}, {"measurement": "half-life at 1 µM", "setting": "[1]", "result": "> 120", "unit": "min"}, {"measurement": "half-life at 1 µM", "setting": "CYP1A1", "result": "> 120", "unit": "min"}, {"measurement": "logD", "setting": "[2]", "result": 1.2}]}, {"smiles": "O=C(NC1CCNC1)c1cn2ccnc2c(N2CCN(c3ccccn3)CC2)n1", "note": "(stereo not drawn)", "values": [{"measurement": "IC50", "setting": "PBL", "result": 118, "unit": "nM"}, {"measurement": "half-life at 1 µM", "setting": "[1]", "result": "> 120", "unit": "min"}, {"measurement": "half-life at 1 µM", "setting": "CYP1A2", "result": "> 120", "unit": "min"}]}, {"smiles": "c1cn2ccnc2c(-c2ccc(N3CCCC3)nc2)n1", "values": [{"measurement": "IC50", "setting": "PBL", "result": 55, "unit": "nM"}, {"measurement": "half-life at 1 µM", "setting": "[1]", "result": 14, "unit": "min"}, {"measurement": "half-life at 1 µM", "setting": "CYP1A1", "result": "< 1", "unit": "min"}, {"measurement": "half-life at 1 µM", "setting": "CYP1A2", "result": "< 1", "unit": "min"}, {"measurement": "logD", "setting": "[2]", "result": 2.5}]}, {"smiles": "O=C(CCc1cnc2c(N3CCN(c4ncccn4)CC3)nccn12)N1CCOCC1", "values": [{"measurement": "IC50", "setting": "PBL", "result": "> 10000", "unit": "nM"}, {"measurement": "half-life at 1 µM", "setting": "CYP1A1", "result": "> 120", "unit": "min"}, {"measurement": "half-life at 1 µM", "setting": "CYP1A2", "result": "> 120", "unit": "min"}]}, {"smiles": "c1cnc(N2CCN(c3nccn4ccnc34)CC2)nc1", "values": [{"measurement": "IC50", "setting": "PBL", "result": 18, "unit": "nM"}, {"measurement": "half-life at 1 µM", "setting": "[1]", "result": 45, "unit": "min"}, {"measurement": "half-life at 1 µM", "setting": "CYP1A1", "result": "< 2", "unit": "min"}, {"measurement": "half-life at 1 µM", "setting": "CYP1A2", "result": 2, "unit": "min"}, {"measurement": "logD", "setting": "[2]", "result": 2}, {"measurement": "Activity", "setting": "Salmonella typhi", "result": "Active"}]}, {"smiles": "CC(C)(C)NC(=O)c1cn2ccnc2c(N2CCN(c3ncccn3)CC2)n1", "values": [{"measurement": "IC50", "setting": "PBL", "result": 39, "unit": "nM"}, {"measurement": "half-life at 1 µM", "setting": "[1]", "result": 3, "unit": "min"}, {"measurement": "half-life at 1 µM", "setting": "CYP1A1", "result": 13, "unit": "min"}, {"measurement": "logD", "setting": "[2]", "result": 3.7}, {"measurement": "Activity", "setting": "Salmonella typhi", "result": "inactive"}]}]}
